Data: patent US9481688B2, “(Thieno[2,3-b][1,5]benzoxazepin-4-yl)piperazin-1-yl compounds as dual activity H1 inverse agonists/5-HT2A antagonists” (Eli Lilly and Company, priority 2011, dated 2016)
Where a name gives a salt, the structure may show the parent alone.

Experiments:
5-HT2A Receptor = 5-HT2A Receptor (Rattus norvegicus (Rat), UniProt P14842); test: 5-HT2A receptor occupancy in vivo (MDL 100907 tracer); conditions: oral gavage, 1 hr. before tracer
Source text: J Neurosci Methods. […] Recording Environment. […] Relative humidity averages approximately 50%. […] Study Design and Dosing. […] Data Collection. […] Statistical Analysis.

Wistar rats = test: Sleep and behavioral monitoring in rats (EEG, EMG, motion); conditions: for Rebound Insomnia, Adj. Mean: NREM + REM sleep in 7th-9th hours post-treatment; for Rebound Insomnia, Adj. Mean / REM inhibition, Adj. Mean / Cumulative NREM sleep, Adj. Mean / Cumulative Total sleep, Adj. Mean / Locomotor Activity Intensity, Adj. Mean: difference from vehicle; for REM inhibition, Adj. Mean: REM sleep in first 12 hr. post-treatment; for Average Sleep Bout, Adj. Mean / Longest Sleep Bout, Adj. Mean / Cumulative NREM sleep, Adj. Mean / Cumulative Total sleep, Adj. Mean / Locomotor Activity Intensity, Adj. Mean: first 6 hr. post-treatment
[1] = rat, PO, 6 hr. after treatment, 4 parameter logistic regression

For `Cc1ccc2c(c1)Oc1sc(Cl)cc1C(N1CCN(CC(C)(C)C(=O)O)CC1)=N2` [Example 3, 3-[4-(2-chloro-8-methyl-thieno[2,3-b][1,5]benzoxazepin-4-yl)piperazin-1-yl]-2,2-dimethyl-propanoic acid dihydrochloride], the ED50 (5-HT2A Receptor) was 0.09 mg/kg, the “Rebound Insomnia, Adj. Mean” value (Wistar rats; 0.025 mg/kg PO) was 1.4 min and the “REM inhibition, Adj. Mean” value (Wistar rats; 0.025 mg/kg PO) was 0.5 min. The “Average Sleep Bout, Adj. Mean” value (Wistar rats; 0.025 mg/kg PO) was 1.2 n-fold increase over vehicle controls, the “Longest Sleep Bout, Adj. Mean” value (Wistar rats; 0.025 mg/kg PO) was 1.1 n-fold increase over vehicle controls and the “Cumulative NREM sleep, Adj. Mean” value (Wistar rats; 0.025 mg/kg PO) was 6.5 min. For the same compound, the “Cumulative Total sleep, Adj. Mean” value (Wistar rats; 0.025 mg/kg PO) was 7.7 min, the “Locomotor Activity Intensity, Adj. Mean” value (Wistar rats; 0.025 mg/kg PO) was 0.2 LMA counts per minute of EEG-defined wakefulness and the “Rebound Insomnia, Adj. Mean” value (Wistar rats; 0.035 mg/kg PO) was 1.3 min. For the same compound, the “REM inhibition, Adj. Mean” value (Wistar rats; 0.035 mg/kg PO) was -1.8 min, the “Average Sleep Bout, Adj. Mean” value (Wistar rats; 0.035 mg/kg PO) was 1.3 n-fold increase over vehicle controls and the “Longest Sleep Bout, Adj. Mean” value (Wistar rats; 0.035 mg/kg PO) was 1.1 n-fold increase over vehicle controls. For the same compound, the “Cumulative NREM sleep, Adj. Mean” value (Wistar rats; 0.035 mg/kg PO) was 19.2 min, the “Cumulative Total sleep, Adj. Mean” value (Wistar rats; 0.035 mg/kg PO) was 18.9 min and the “Locomotor Activity Intensity, Adj. Mean” value (Wistar rats; 0.035 mg/kg PO) was 0.2 LMA counts per minute of EEG-defined wakefulness. For the same compound, the “Rebound Insomnia, Adj. Mean” value (Wistar rats; 0.05 mg/kg PO) was 0.2 min, the “REM inhibition, Adj. Mean” value (Wistar rats; 0.05 mg/kg PO) was 4.2 min and the “Average Sleep Bout, Adj. Mean” value (Wistar rats; 0.05 mg/kg PO) was 1.6 n-fold increase over vehicle controls. For the same compound, the “Longest Sleep Bout, Adj. Mean” value (Wistar rats; 0.05 mg/kg PO) was 1.4 n-fold increase over vehicle controls, the “Cumulative NREM sleep, Adj. Mean” value (Wistar rats; 0.05 mg/kg PO) was 23.4 min and the “Cumulative Total sleep, Adj. Mean” value (Wistar rats; 0.05 mg/kg PO) was 25.3 min. For the same compound, the “Locomotor Activity Intensity, Adj. Mean” value (Wistar rats; 0.05 mg/kg PO) was −0.3 LMA counts per minute of EEG-defined wakefulness, the “Rebound Insomnia, Adj. Mean” value (Wistar rats; 0.1 mg/kg PO) was -3.7 min and the “REM inhibition, Adj. Mean” value (Wistar rats; 0.1 mg/kg PO) was 4.9 min. For the same compound, the “Average Sleep Bout, Adj. Mean” value (Wistar rats; 0.1 mg/kg PO) was 1.7 n-fold increase over vehicle controls, the “Longest Sleep Bout, Adj. Mean” value (Wistar rats; 0.1 mg/kg PO) was 1.5 n-fold increase over vehicle controls and the “Cumulative NREM sleep, Adj. Mean” value (Wistar rats; 0.1 mg/kg PO) was 26.7 min. The “Cumulative Total sleep, Adj. Mean” value (Wistar rats; 0.1 mg/kg PO) was 28.7 min, the “Locomotor Activity Intensity, Adj. Mean” value (Wistar rats; 0.1 mg/kg PO) was 0.1 LMA counts per minute of EEG-defined wakefulness and the “Rebound Insomnia, Adj. Mean” value (Wistar rats; 0.25 mg/kg PO) was -2.2 min. For the same compound, the “REM inhibition, Adj. Mean” value (Wistar rats; 0.25 mg/kg PO) was 2.0 min, the “Average Sleep Bout, Adj. Mean” value (Wistar rats; 0.25 mg/kg PO) was 2.1 n-fold increase over vehicle controls and the “Longest Sleep Bout, Adj. Mean” value (Wistar rats; 0.25 mg/kg PO) was 2.0 n-fold increase over vehicle controls. For the same compound, the “Cumulative NREM sleep, Adj. Mean” value (Wistar rats; 0.25 mg/kg PO) was 37.9 min, the “Cumulative Total sleep, Adj. Mean” value (Wistar rats; 0.25 mg/kg PO) was 38.9 min and the “Locomotor Activity Intensity, Adj. Mean” value (Wistar rats; 0.25 mg/kg PO) was −0.7 LMA counts per minute of EEG-defined wakefulness. The “Rebound Insomnia, Adj. Mean” value (Wistar rats; 0.5 mg/kg PO) was -5.0 min, the “REM inhibition, Adj. Mean” value (Wistar rats; 0.5 mg/kg PO) was 0.4 min and the “Average Sleep Bout, Adj. Mean” value (Wistar rats; 0.5 mg/kg PO) was 1.8 n-fold increase over vehicle controls. The “Longest Sleep Bout, Adj. Mean” value (Wistar rats; 0.5 mg/kg PO) was 2.2 n-fold increase over vehicle controls, the “Cumulative NREM sleep, Adj. Mean” value (Wistar rats; 0.5 mg/kg PO) was 32.9 min and the “Cumulative Total sleep, Adj. Mean” value (Wistar rats; 0.5 mg/kg PO) was 30.9 min. The “Locomotor Activity Intensity, Adj. Mean” value (Wistar rats; 0.5 mg/kg PO) was 0.6 LMA counts per minute of EEG-defined wakefulness, the “Rebound Insomnia, Adj. Mean” value (Wistar rats; 1 mg/kg PO) was 1.6 min and the “REM inhibition, Adj. Mean” value (Wistar rats; 1 mg/kg PO) was -0.1 min. For the same compound, the “Average Sleep Bout, Adj. Mean” value (Wistar rats; 1 mg/kg PO) was 1.7 n-fold increase over vehicle controls, the “Longest Sleep Bout, Adj. Mean” value (Wistar rats; 1 mg/kg PO) was 2.0 n-fold increase over vehicle controls and the “Cumulative NREM sleep, Adj. Mean” value (Wistar rats; 1 mg/kg PO) was 34.0 min. For the same compound, the “Cumulative Total sleep, Adj. Mean” value (Wistar rats; 1 mg/kg PO) was 33.6 min, the “Locomotor Activity Intensity, Adj. Mean” value (Wistar rats; 1 mg/kg PO) was −1.6 LMA counts per minute of EEG-defined wakefulness and the “Rebound Insomnia, Adj. Mean” value (Wistar rats; 3 mg/kg PO) was 0.3 min. The “REM inhibition, Adj. Mean” value (Wistar rats; 3 mg/kg PO) was -4.6 min, the “Average Sleep Bout, Adj. Mean” value (Wistar rats; 3 mg/kg PO) was 2.0 n-fold increase over vehicle controls and the “Longest Sleep Bout, Adj. Mean” value (Wistar rats; 3 mg/kg PO) was 2.7 n-fold increase over vehicle controls. The “Cumulative NREM sleep, Adj. Mean” value (Wistar rats; 3 mg/kg PO) was 31.7 min, the “Cumulative Total sleep, Adj. Mean” value (Wistar rats; 3 mg/kg PO) was 29.7 min and the “Locomotor Activity Intensity, Adj. Mean” value (Wistar rats; 3 mg/kg PO) was −3.1 LMA counts per minute of EEG-defined wakefulness. For the same compound, the “Rebound Insomnia, Adj. Mean” value (Wistar rats; 10 mg/kg PO) was -3.1 min, the “REM inhibition, Adj. Mean” value (Wistar rats; 10 mg/kg PO) was -9.4 min and the “Average Sleep Bout, Adj. Mean” value (Wistar rats; 10 mg/kg PO) was 2.0 n-fold increase over vehicle controls. For the same compound, the “Longest Sleep Bout, Adj. Mean” value (Wistar rats; 10 mg/kg PO) was 2.3 n-fold increase over vehicle controls, the “Cumulative NREM sleep, Adj. Mean” value (Wistar rats; 10 mg/kg PO) was 29.1 min and the “Cumulative Total sleep, Adj. Mean” value (Wistar rats; 10 mg/kg PO) was 26.5 min. For the same compound, the “Locomotor Activity Intensity, Adj. Mean” value (Wistar rats; 10 mg/kg PO) was −1.9 LMA counts per minute of EEG-defined wakefulness, the “change in awake time following treatment (dose response curve, FIG. 2)” value (Wistar rats; rat) was “does not result in rebound insomnia” and the “change in cumulative REM sleep time (dose response curve, FIG. 1)” value (Wistar rats; rat) was “does not inhibit REM sleep”. The “change in distances moved during periods of wakefulness (dose response curve, FIG. 3)” value (Wistar rats; rat) was “does not inhibit or stimulate normal activity”, the “Estimated efficacy dose, NREM accumulation = 30 min.” value (Wistar rats; [1]) was 0.09 mg/kg and the “Estimated efficacy dose, average sleep bout (1.5-fold increase)” value (Wistar rats; [1]) was 0.04 mg/kg. The “Estimated efficacy dose, longest sleep bout (1.75-fold increase)” value (Wistar rats; [1]) was 0.12 mg/kg, the “Estimated efficacy dose, total sleep accumulation = 25 min.” value (Wistar rats; [1]) was 0.05 mg/kg and the REM sleep inhibition (Wistar rats; rat, at 3 mg/kg) was “without significant”. The “cumulative NREM sleep time” value (Wistar rats; rat, at 3 mg/kg) was “significantly increase”, the “cumulative total sleep time” value (Wistar rats; rat, at 3 mg/kg) was “significantly increase” and the “inhibition of locomotor intensity (LMI)” value (Wistar rats; rat, at 3 mg/kg) was “without significant”. For the same compound, the rebound insomnia (Wistar rats; rat, at 3 mg/kg) was “without significant rebound insomnia” and the NREM sleep (Wistar rats; rat, coadministered with citalopram) was “significantly increase NREM sleep at significantly lower doses”.
